Experimental findings from paper PMC8453635, “Piperidine Azasugars Bearing Lipophilic Chains: Stereoselective Synthesis and Biological Activity as Inhibitors of Glucocerebrosidase (GCase)” (The Journal of Organic Chemistry, 2021) are described below.

Positions count from the first letter of the chain named. “Also recorded” adds a separate entry of the source.

For orientation: IC50 means the concentration needed to halve the response being measured. The low end stands for greater potency in that assay, the high end for weaker potency in that assay.

Series [1] deals with T1, GCase in fibroblasts bearing the L444P/L444P mutations (Homo sapiens, UniProt P04062, L483P).
T1 construct: fibroblasts derived from Gaucher patients bearing the N370S/RecNcil and L444P/L444P mutations; host or cells: fibroblasts from Gaucher disease patients, L444P/L444P
T1 sequence (P04062 40-536 L483P): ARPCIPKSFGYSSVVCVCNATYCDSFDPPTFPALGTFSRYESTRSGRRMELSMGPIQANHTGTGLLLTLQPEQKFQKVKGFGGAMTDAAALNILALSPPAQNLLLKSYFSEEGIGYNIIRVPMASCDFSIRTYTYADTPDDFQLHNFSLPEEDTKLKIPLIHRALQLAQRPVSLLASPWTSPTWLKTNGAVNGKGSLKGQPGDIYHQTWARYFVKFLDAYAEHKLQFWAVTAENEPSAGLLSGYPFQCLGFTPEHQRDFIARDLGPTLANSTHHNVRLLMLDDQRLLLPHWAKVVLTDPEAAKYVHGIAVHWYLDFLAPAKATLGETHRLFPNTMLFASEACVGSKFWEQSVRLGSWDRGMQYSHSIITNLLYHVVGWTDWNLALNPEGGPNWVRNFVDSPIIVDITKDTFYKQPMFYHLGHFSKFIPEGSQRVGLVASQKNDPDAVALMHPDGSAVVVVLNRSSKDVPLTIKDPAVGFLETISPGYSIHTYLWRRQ
Description: Pharmacological chaperoning activity in L444P/L444P Gaucher fibroblasts. It counts as cell-based. The conditions noted are these: for cell viability: 50 µM, 4 days; for GCase enzymatic activity rescue: 4 days incubation, 5 nM to 10 μM. How it is done:
The ability of compounds 14 and 15 to enhance the activity of GCase after incubation (4 days) with fibroblasts bearing the selected mutations was evaluated. The experiments were performed using fibroblasts derived from Gaucher patients bearing the N370S/RecNcil and L444P/L444P mutations (see the Supporting Information section).
Fibroblasts with the N370S/RecNcil (or L444P/L444P) mutation from Gaucher disease patients were obtained from the “Cell line and DNA Biobank from patients affected by Genetic Diseases” (Gaslini Hospital, Genova, Italy). Fibroblast cells (15.0 × 10^4) were seeded in T25 flasks with DMEM supplemented with fetal bovine serum (10%), penicillin/streptomycin (1%), and glutamine (1%) and incubated at 37 °C with 5% CO2 for 24 h. The medium was removed, and fresh medium containing the compounds (14, 15 and 33·HCl) was added to the cells and incubated for 4 days. The medium was removed, and the cells were washed with PBS and detached with trypsin to obtain cell pellets, which were washed four times with PBS, frozen, and lysed by sonication in water. Enzyme activity was measured as reported above. Reported data are mean S.D. (n = 2).
Figure S52. Fibroblasts derived from GD patients bearing L444P/L444P mutations were incubated without (control, ctrl) or with 7 different concentrations (5 nM, 10 nM, 50 nM, 100 nM, 1 µM, 10 µM, 50 µM) of compounds 14 or 15. After 4 days, the flasks containing cells incubated with 50 µM […]
other concentrations, the GCase activity was determined in lysates from treated fibroblasts. Reported data are mean S.D. (n=2).
(also on this page, place not known: beta glucosidase activity (nmol/mg/h) beta glucosidase activity (nmol/mg/h))

The next series concerns the target T2, GCase (Homo sapiens, UniProt P04062).
T2 construct: screened toward GCase in leukocytes isolated from healthy donors (controls); from tissue; host or cells: leukocytes isolated from healthy donors, disrupted by sonication
T2 sequence (P04062 40-536): T1 sequence (P04062 40-536 L483P) with P444L
Description: GCase inhibition in human leukocyte homogenates. It counts as biochemical. The conditions noted are these: for GCase inhibition [%]: human leukocytes extracts incubated with azasugars (1 mM); for IC50: human leukocytes from healthy donors, substrate 4-methylumbelliferyl-β-D-glucoside 3.33 mM. How it is done: Compounds 14, 15, and 33·HCl were then tested at 1 mM for GCase inhibition in human leukocyte homogenates. The results obtained were compared with data of previously reported compounds 9, 11, and 12.[12],[16],[17]
The compounds 14, 15, and 33·HCl were screened toward GCase in leukocytes isolated from healthy donors (controls). Isolated leukocytes were disrupted by sonication, and a micro BCA protein assay kit (Sigma-Aldrich) was used to determine the total protein amount for the enzymatic assay, according to the manufacturer instructions. Enzyme activity was measured in a flat-bottomed 96-well plate. Compound solution (3 μL), 4.29 μg/μL leukocytes homogenate (7 μL), and substrate 4-methylumbelliferyl-β-D-glucoside (3.33 mM, 20 μL, Sigma-Aldrich) in citrate/phosphate buffer (0.1:0.2, M/M, pH 5.8) containing sodium taurocholate (0.3%) and Triton X-100 (0.15%) at 37 °C were incubated for 1 h. The reaction was stopped by addition of sodium carbonate (200 μL; 0.5 M, pH 10.7) containing Triton X-100 (0.0025%), and the fluorescence of 4-methylumbelliferone released by β-glucosidase activity was measured in SpectraMax M2 microplate reader (λex = 365 nm, λem = 435 nm; Molecular Devices). Percentage GCase inhibition is given with respect to the control (without compound). Data are mean SD (n = 3).
The IC50 values of inhibitors against GCase were determined by measuring the initial hydrolysis rate with 4-methylumbelliferyl-β-D-glucoside (3.33 mM). Data obtained were fitted by using the appropriate Equation (for more details, see the Supporting Information section).
Percentage of GCase inhibition of compounds 14, 15 and 33.HCl towards human GCase Percentage of GCase inhibition of the whole collection of compounds in human leukocytes extracts incubated with iminosugars at 1 mM concentration.
IC50 determination: The IC50 values of inhibitors against GCase were determined by measuring the initial hydrolysis rate with 4-methylumbelliferyl-β-D-glucoside (3.33 mM). Data obtained were fitted to the following equation using the Origin Microcal program. where Vi/Vo, represent the ratio between the activity measured in the presence of the inhibitor (Vi) and the activity of the control without the inhibitor (V0), “x” the inhibitor concentration, Max and Min, the maximal and minimal enzymatic activity observed, respectively.
(also on this page, place not known: Min IC x MinMax Vo Vi slope + […] […] […] […] […] […]+ −= 50 1 (V i) activity nmoli/mg/h)
(1 picture or pasted object on this page, not shown here)

Consider `CCCCCCCC[C@@H]1[C@@H](O)[C@H](O)[C@H](O)CN1CCCCCCCC` [compound 15, (2R,3R,4R,5R)-1,2-Dioctylpiperidine-3,4,5-triol], for which, in series [1], the cell viability result is listed as “low cell viability” and the “GCase enzymatic activity rescue” value is “no enzymatic activity rescue; also recorded: no GCase activity enhancements”. For the same compound, the “GCase inhibitory activity relative to monoalkylated counterpart 12” value at GCase (comparison of IC50 values) is recorded as “twofold more active”. In addition, at GCase, the “GCase inhibition [%]” value stood at 100% and the midpoint of inhibition, the IC50, lay at 15 ± 4 µM.
For `CCCCCCCC[C@@H]1[C@@H](O)[C@H](O)[C@H](O)CN1C(CCCCCCC)CCCCCCC.Cl` [compound 33·HCl, (2R,3R,4R,5R)-2-Octyl-1-(pentadecan-8-yl)-piperidine-3,4,5-triol Hydrochloride], on GCase, the “GCase inhibition [%]” value came out at 75% and the IC50 turned out to be 130 ± 15 µM.
`CCCCCCCC[C@H]1[C@@H](O)[C@H](O)[C@H](O)CN1CCCCCCCC` [compound 14, (2S,3R,4R,5R)-1,2-Dioctylpiperidine-3,4,5-triol]: in series [1], the cell viability entry is “low cell viability” and the “GCase enzymatic activity rescue” value is listed as “no enzymatic activity rescue; also recorded: no GCase activity enhancements”. On GCase, the “GCase inhibition [%]” value came out at 100% and it took 100 ± 9 µM to reach half-maximal inhibition (IC50).
